± gives the expanded uncertainty stated by the source.

One may read the speed of sound as how fast a sound wave travels through the sample.

The conditions of the data set: 101 kPa, Liquid, Sing-around technique in a fixed-path interferometer.

As for `O` [water], the speed of sound (313.15 K) came to 1529.2 ± 0.77 m/s and the speed of sound (318.15 K) stood at 1536.8 ± 0.78 m/s.

Values taken from the NIST ThermoML archive (doi:10.1021/acs.jced.5b00317).
